Test results: patent US20010018422A1, “Dolastatin 15 derivatives” (BASF Aktiengesellschaft, priority 1999, published 2001)

Key:
[1] = system: tumor cells such as the HT-29 colon carcinoma or LX-1 lung tumor; assay: Cytotoxicity, microculture tetrazolium assay (MTT); type: cell-based; conditions: 48 hours incubation, T/C of 50%, cell line not given
Protocol: Cytotoxicity was measured using a standard methodology for adherent cell lines, such as the microculture tetrazolium assay (MTT). Details of this assay have been published (Alley, M. C. et al., Cancer Research 48: 589-601, 1988). Exponentially growing cultures of tumor cells such as the HT-29 colon carcinoma or LX-1 lung tumor were used to make microtiter plate cultures. Cells were seeded at 5000-20,000 cells per well in 96-well plates (in […] of media), and grown overnight at 37° C. Test compounds were added, in 10-fold dilutions varying from 10^−4 M to 10^−10 M. Cells were then incubated for 48 hours. To determine the number of viable cells in each well, the MTT dye was added ([…] of a 3 mg/mL solution of 3-(4,5-dimethylthiazol-2-yl)-2,5-diphenyltetrazolium bromide in saline). This mixture was incubated at 37° C. for 5 hours, and then […] of 25% SDS, pH 2, was added to each well. After an overnight incubation, the absorbance of each well at 550 nm was read using an ELISA reader. The values for the mean+/−SD of data from replicated wells were calculated, using the formula % T/C (% viable cells treated/control). The concentration of test compound which gives a T/C of 50% growth inhibition was designated as the IC50.

[2] = system: National Cancer Institute's P388 lymphocytic leukemia (PS system) cell line; conditions: cited from earlier work
[3] = synthetic Dolastatin 15; cited from earlier work

Compound | IC50 [1] | inhibition of growth of P388 cell line [2] | solubility in aqueous systems [3]
CNC(=O)c1cccc(C2CCCC2)c1NC(=O)[C@@H]1CCCN1C(=O)[C@H](C(C)C)N(C)C(=O)[C@@H](NC(=O)[C@H](C(C)C)N(C)C)C(C)C [Compound I-7, 2-(Me2ValVal-MeVal-ProNH)-3-cyclopentanyl-C6H3C(O)NHCH3] | 400 nM |  | 
CC(C)C(NC(=O)[C@H](C(C)C)N(C)C)C(=O)N(C)[C@H](C(=O)N1CCC[C@H]1C(=O)NC1CCCC1C(=O)NCc1ccccc1)C(C)C (stereo partly drawn) [VII-2, Me2-Val-Val-MeVal-Pro-[cis-2-aminocyclopentanecarboxylic acid]-NHBn] | > 1000 nM |  | 
2-(Me2Val-Val-MeVal-Pro-NH)—C6H4—CO—CH3 [IV-1] | > 1000 nM |  | 
CON(C)C(=O)c1ccccc1NC(=O)[C@@H]1CCCN1C(=O)[C@H](C(C)C)N(C)C(=O)C(NC(=O)[C@H](C(C)C)N(C)C)C(C)C (stereo partly drawn) [Compound I-60, (2)-(Me2Val-Val-MeVal-Pro-NH)—C6H4—CON(CH3)(OCH3)] | 400 nM |  | 
Dolastatin 15 |  | markedly inhibits the growth | poor solubility
